The values below come from PubChem BioAssay AID1996.

Each structure is given as a SMILES string. Values after ≈ are worked out from the molar mass of the structure shown. Bounds are passed on as bounds.

For the data set the following is noted: buffer; pH 7.4; 200.0 µM.
Consider `Cn1c(COc2ccccc2Br)nc2ccccc21`, for which the solubility (kinetic) (usually solubility judged after dilution from a stock solution rather than from solid) is 1.4 µg/mL (≈ 4.41 µM). The compound `Cc1ccc(-c2ccc(S(=O)(=O)Nc3cccnc3)cc2)cc1` showed a kinetic solubility of 0.5 µg/mL (≈ 1.54 µM). This solubility kinetic is about 2.8-fold lower than that of the compound before. Under `Cc1cccc(C)c1NC(=O)CN1CCCC1` stands 31.3 µg/mL (≈ 135 µM); under `CC(C)S(=O)(=O)C/C(N)=N/OC(=O)c1cc(Cl)cc(Cl)c1`, 34.5 µg/mL (≈ 97.7 µM). For `Cc1cc(Cl)c2ccc3ccccc3c2n1` the value was less than 0.5 µg/mL.

Consider `Cc1cc(OCc2cccc(Cl)c2)c(C)cc1CN1CCOCC1`, for which the kinetic solubility is 1 µg/mL (≈ 2.89 µM). Under `COc1ccc(NC(=O)CON=CC(=O)Nc2ccc(C)cc2)c(OC)c1` stands 3.8 µg/mL (≈ 10.2 µM); under `O=C(O)CCC(=O)Nc1cccc(C(=O)c2ccccc2)c1`, greater than 44.6 µg/mL. `CC1Cc2ccccc2N1S(=O)(=O)c1ccc(Cl)nc1` (configuration not stated): the solubility (kinetic) came to 1.9 µg/mL (≈ 6.15 µM).

As for `COc1cc2c(cc1OC)CN(c1ncccc1[N+](=O)[O-])CC2`, the kinetic solubility was found to be 5.6 µg/mL (≈ 17.8 µM). Under `CCn1cc(CCC(=O)NCc2ccccc2OC)c2ccccc21` stands 30.5 µg/mL (≈ 90.7 µM); under `Cc1nc2sc(C(=O)c3ccccc3)c(N)c2c(C)c1C`, less than 0.3 µg/mL. For `CCOC(=O)N1CCN(C(=O)Nc2ccccc2)CC1` the value was greater than 41.6 µg/mL. For `O=C(Cc1ccc(Cl)cc1Cl)OCC(=O)N1CCCCC1` the value was greater than 49.5 µg/mL; for `O=C(CSc1nc2ccccc2c(=O)n1CCCN1CCOCC1)NCCc1ccccc1`, 64.3 µg/mL (≈ 138 µM); for `CSCCC1NC(=O)N(CC(=O)Nc2ccc3c(c2)OCCO3)C1=O` (configuration not stated), greater than 54.8 µg/mL. On to `Br.Clc1ccccc1CNCC1CCCO1` (configuration not stated), for which the solubility (kinetic) turned out to be 41 µg/mL.

`Cc1ccc(NC(=O)CN2C(=O)c3ccccc3C2=O)cc1` gave a solubility (kinetic) of 2 µg/mL (≈ 6.8 µM).

`CN/C=C(/Cl)P(=O)(OC(C)C)OC(C)C` returned a kinetic solubility greater than 38.4 µg/mL. For `CCOC(=O)c1cc(Sc2ccccc2N)cc(C(=O)OCC)n1` the value was less than 0.4 µg/mL; for `O=C1COc2ccc(C(=O)COC(=O)CCOc3ccccc3)cc2N1`, 10.1 µg/mL (≈ 28.4 µM); for `O=C1NC(c2ccccc2O)Nc2ccccc21` (configuration not stated), 34.8 µg/mL (≈ 145 µM).

`Cc1ccc(NC(=O)COC(=O)CCc2ccccc2)cc1S(=O)(=O)N1CCOCC1` had a solubility (kinetic) of 24.6 µg/mL (≈ 55.1 µM). Under `CN1C(=O)NC(=O)/C(=C/c2ccc([N+](=O)[O-])o2)C1=O` stands greater than 39.8 µg/mL; under `COCCn1c(=S)[nH]c2ccccc21`, greater than 31.2 µg/mL; under `N#CCc1ccc(OC(=O)c2ccncc2)cc1`, greater than 35.7 µg/mL. For `CN(C)c1ccc(NC(=O)COC(=O)c2ccc3c(c2)OCO3)cc1` the value was 10.8 µg/mL (≈ 31.5 µM); for `Cc1ccc(NC(=O)C2CCCCC2C(=O)O)cc1C` (configuration not stated), 40.4 µg/mL (≈ 147 µM); for `O=c1c2ccccc2nc(/C=C/c2ccccc2)n1-c1ccc(O)cc1`, 1.6 µg/mL (≈ 4.7 µM). For `CCC(C)NC(=O)c1ccc(-n2c(=S)[nH]c3ccccc3c2=O)cc1` (configuration not stated) the value was 3.7 µg/mL (≈ 10.5 µM); for `O=S(=O)(c1ccsc1)N1CC=C(c2ccccc2)CC1`, 3.8 µg/mL (≈ 12.4 µM); for `COc1ccc(-c2noc(=O)n2Cc2ccccc2Cl)cc1`, 17.8 µg/mL (≈ 56.2 µM). `O=[N+]([O-])c1cccc(/C=N/n2cnnc2)c1` showed a solubility (kinetic) greater than 32.6 µg/mL. `CCOC(=O)CC1C(=O)NCCN1C(=O)c1cccc(OC)c1` (configuration not stated) showed a solubility (kinetic) of 44.4 µg/mL (≈ 139 µM). Under `CC(=O)N(c1ccccc1C)S(=O)(=O)c1ccc(Cl)cc1` stands 34.3 µg/mL (≈ 106 µM).

`Cc1ccc(NCC(=O)Nc2ccc(Br)cc2)cc1C` displayed a kinetic solubility of 3.7 µg/mL (≈ 11.1 µM). For `CC(=O)CC(CC(=O)NC1CCCCC1)c1ccccc1` (configuration not stated), the solubility (kinetic) was greater than 43.1 µg/mL. For `COc1ccc([N+](=O)[O-])cc1NC(=O)c1cccnc1` the value was 28.8 µg/mL (≈ 105 µM); for `CC(C)S(=O)(=O)c1cnc(N2CCOCC2)nc1N`, greater than 43 µg/mL.

Take `CC(=O)c1cccc(NC(=S)NCc2ccco2)c1`: the kinetic solubility is 33.7 µg/mL (≈ 123 µM). For `Cc1cc(C)c(NC(=O)Nc2ccc3c(c2)OCO3)c(C)c1` the value was 0.6 µg/mL (≈ 2.01 µM). Under `Cc1ccc(Sc2ncccc2N)cc1` stands 32.2 µg/mL (≈ 149 µM); under `Cc1ccc(C(=O)NCC(=O)N2CCN(c3cccc(Cl)c3)CC2)s1`, 2.8 µg/mL (≈ 7.41 µM). Compound `O=C(NCc1cccnc1)c1ccccc1NC(=O)c1c(F)cccc1F` came in with a kinetic solubility greater than 55.1 µg/mL.

Compound `Cc1ccc(S(=O)(=O)N[C@@H](Cc2ccccc2)C(=O)CCl)cc1` yielded a kinetic solubility greater than 52.8 µg/mL. Under `Cc1ccc(OCC(=O)Nc2ccc(Cl)cc2)c([N+](=O)[O-])n1` stands 8.7 µg/mL (≈ 27 µM). For `CN=C1S/C(=C\c2ccc(O)c(OC)c2)C(=O)N1C` the value was 5.9 µg/mL (≈ 21.2 µM); for `CC(=O)c1c(C)[nH]c(C(=O)COC(=O)c2cc(C)oc2C)c1C`, 13.1 µg/mL (≈ 41.3 µM). Under `O=C(NCCc1csc(-c2ccccc2)n1)c1ccccc1F` stands 40.2 µg/mL (≈ 123 µM). Turning to `COCc1cc(=O)[nH]c(SC)n1`, the kinetic solubility is greater than 27.9 µg/mL. Under `Cc1ccccc1Nc1ncc(C#N)c(N)n1` stands 31.6 µg/mL (≈ 140 µM); under `Cc1nnc(SCC(=O)Nc2ccc(F)cc2)n(N)c1=O`, greater than 46.4 µg/mL.
